Key:
[1] = system: human platelet; details: Leuthje and Ogiluie 1984; cited from earlier work
[2] = system: coronary vessels; details: at normal time; cited from earlier work
[3] = system: Mongrel dogs; assay: Lactate extraction ratio and pH of venous blood during ischemia; assay type: in vivo; details: ischemia (1/3 blood flow), N = 2
Procedure: (§1) Mongrel dogs weighing 18-22 kg were anesthetized with pentobarbital sodium (30 mg/kg). The trachea was intubated, and the dog was ventilated with room air with oxygen. The chest was opened through the left fifth intercostal space, and the heart was suspended in a pericardial cradle. The left anterior descending coronary artery was cannulated and perfused with blood via the carotid artery through an extracorporeal bypass tube after heparinization (500 units/kg). Coronary blood flow (CBF) was measured with an electromagnetic flow probe attached to the bypass tube, and coronary perfusion pressure (CPP) was monitored at the tip of the coronary arterial cannula. A small, short collecting tube was cannulated into a small coronary vein near the center of the perfused area to sample coronary venous blood. The drained venous blood was collected in a reservoir placed at the level of the left atrium. A high fidelity of left ventricular pressure and its first derivative were measured by a micromanometer (model P-5, Konigsberg Instruments, Inc., Pasadena, Calif.) placed in the left ventricular cavity through the apex. A pair of ultrasonic crystals was placed in the center of the perfused area about 1 cm apart to measure myocardial segment length with an ultrasonic dimension gauge (5 MHz, Schuessler, Cardiff by the Sea, Calif.). End-diastolic length (EDL) was determined at the R wave of the electrocardiogram, and end-systolic length (ESL) was determined at the minimal dP/dt. Fractional shortening was calculated by (EDL-ESL)/EDL as an index of myocardial contractility of the perfused area.
Namely, the lactate extraction ratio was obtained by coronary arteriovenous difference in lactate concentration multiplied by 100 and divided by arterial lactate concentration.
(§2) After stabilization, CPP was decreased with partial occlusion of the bypass tube to the left anterior descending coronary artery such that CBF decreased to one third of the control flow. The low CPP was maintained during this test.
(§3) Blood sampling from coronary veins and coronary arteries was conducted. Then the intracoronary administration of Ap4A was stopped. The lowered coronary perfusion pressure was further maintained for 10 minutes.
(§4) The above test was repeated by replacing Ap4A with adenosine with the dosage thereof being changed to 4, 8 and 16 μg/kg/min.
As mentioned previously, in the above-mentioned experimental systems, lactate extraction ratio and pH of venous blood were measured at the time of the intracoronary administration of Ap4A and also at the time of the intracoronary administration of adenosine.

[4] = cited from earlier work
[5] = system: Mongrel dogs; assay: Coronary blood flow increase effect, nonischemic condition; assay type: in vivo; details: for Coronary blood flow: N = 1 - 2; for coronary blood flow increase: nonischemic
Procedure: as §1
After stabilization, a physiological saline solution […], with the dosage thereof increased to 0.5, 1, 2, 4 and 8 μg/kg/min, and the changes in coronary blood flow were measured in order to assess the coronary blood flow increase effect of Ap4A.
8-sulfophenyltheophylline (hereinafter referred to as 8-SPT) serving as adenosine P1 receptor antagonist with a dose of 25 μg/kg/min was tested.
The above test was also repeated by replacing 8-SPT with N^G -nitro-L-arginine methyl ester (hereinafter referred to as L-NAME) serving as an endothelial-cell-induced nitric oxide (NO) synthesis inhibitor with a dose of 3 μg/kg/min(ic).
The above test was then repeated using 8-SPT and L-NAME in combination.

[6] = system: Mongrel dogs; assay: Amelioration of myocardial ischemia: coronary blood flow, fractional shortening and perfusion pressure during factitious 1/3 blood flow; assay type: in vivo; details: for Myocardial fractional shortening / Coronary blood flow / Coronary perfusion pressure: ischemia (1/3 blood flow), N = 2
Procedure: as §1, §2, §3, §4

[7] = Japanese Laid-Open Patent Application 3-167126; cited from earlier work
[8] = system: rabbit mesenteric arteries; details: R. Busse et al. 1988; cited from earlier work
[9] = system: Mongrel dogs; assay: Myocardial oxygen consumption (MVO2), nonischemic condition; assay type: in vivo; details: for Myocardial oxygen consumption: control 9.1
Procedure: as §1
After stabilization, a physiological saline solution prepared by dissolving Ap4A.4Na in physiological saline was continuously infused into the coronary artery, with the dosage thereof increased to 0.5, 1, 2, 4 and 8 μg/kg/min, and the changes in coronary blood flow were measured in order to assess the coronary blood flow increase effect of Ap4A.
Changes in myocardial oxygen consumption (MVO2) (ml/100 g/min) caused by the administration of Ap4A were measured as shown in TABLE 2.

[10] = Japanese Laid-Open Patent Application 5-286861; cited from earlier work

Nc1ncnc2c1ncn2[C@@H]1O[C@H](COP(=O)(O)OP(=O)(O)OP(=O)(O)OP(=O)(O)OC[C@H]2O[C@@H](n3cnc4c(N)ncnc43)[C@H](O)[C@@H]2O)[C@@H](O)[C@H]1O [Ap4A, Diadenosine 5',5"'-p^1, p^4 -tetraphosphate]
ADP-induced human platelet aggregation inhibitory effect [1]: ADP-induced human platelet aggregation inhibitory effect | vasodilating effect on coronary vessels [2]: vasodilating effect on coronary vessels at normal time | pH of venous blood ([3]; Ap4A 4 μg/kg/min intracoronary, control 7.39, 1/3 control 7.23): 7.29 | Lactate extraction ratio ([3]; Ap4A 4 μg/kg/min intracoronary, control 28.3, 1/3 control -39.8): -15.8% | pH of venous blood ([3]; Ap4A administration stopped, 1/3 control 7.23): 7.19 | Lactate extraction ratio ([3]; Ap4A administration stopped, 1/3 control -39.8): -48.6% | degradation in vivo [4]: degraded in vivo to ATP and AMP, which are eventually degraded to adenosine | coronary blood flow increase effect of Ap4A in presence of 8-SPT ([5]; 8-SPT 25 μg/kg/min): partially inhibited | coronary blood flow increase effect of Ap4A in presence of 8-SPT and L-NAME ([5]; 8-SPT and L-NAME in combination): not completely inhibited | coronary blood flow increase effect of Ap4A in presence of L-NAME ([5]; L-NAME 3 μg/kg/min (ic)): only slightly inhibited | Coronary blood flow ([5]; Untreated (no inhibitor), Ap4A 0.5 μg/kg/min intracoronary, control 93.7): 104.1 ml/100 g/min | Coronary blood flow ([5]; Untreated (no inhibitor), Ap4A 1 μg/kg/min intracoronary, control 93.7): 122.2 ml/100 g/min | Coronary blood flow ([5]; Untreated (no inhibitor), Ap4A 2 μg/kg/min intracoronary, control 93.7): 137.6 ml/100 g/min | Coronary blood flow ([5]; Untreated (no inhibitor), Ap4A 4 μg/kg/min intracoronary, control 93.7): 158.9 ml/100 g/min | Coronary blood flow ([5]; Untreated (no inhibitor), Ap4A 8 μg/kg/min intracoronary, control 93.7): 202.2 ml/100 g/min | coronary blood flow increase ([5]; intracoronary 0.5 to 8 μg/kg/min): significantly increasing the coronary blood flow dose-dependently | coronary blood flow increase ([5]; intravenous administration): This effect was also observed | Coronary blood flow ([5]; with 8-SPT 25 μg/kg/min, Ap4A 0.5 μg/kg/min, control 97.0): 98.6 ml/100 g/min | Coronary blood flow ([5]; with 8-SPT 25 μg/kg/min, Ap4A 1 μg/kg/min, control 97.0): 96.8 ml/100 g/min | Coronary blood flow ([5]; with 8-SPT 25 μg/kg/min, Ap4A 2 μg/kg/min, control 97.0): 106.1 ml/100 g/min | Coronary blood flow ([5]; with 8-SPT 25 μg/kg/min, Ap4A 4 μg/kg/min, control 97.0): 117.0 ml/100 g/min | Coronary blood flow ([5]; with 8-SPT 25 μg/kg/min, Ap4A 8 μg/kg/min, control 97.0): 124.5 ml/100 g/min | Coronary blood flow ([5]; with 8-SPT + L-NAME, Ap4A 0.5 μg/kg/min, control 97.1): 97.1 ml/100 g/min | Coronary blood flow ([5]; with 8-SPT + L-NAME, Ap4A 1 μg/kg/min, control 97.1): 108.6 ml/100 g/min | Coronary blood flow ([5]; with 8-SPT + L-NAME, Ap4A 2 μg/kg/min, control 97.1): 102.9 ml/100 g/min | Coronary blood flow ([5]; with 8-SPT + L-NAME, Ap4A 4 μg/kg/min, control 97.1): 114.3 ml/100 g/min | Coronary blood flow ([5]; with 8-SPT + L-NAME, Ap4A 8 μg/kg/min, control 97.1): 120.0 ml/100 g/min | Coronary blood flow ([5]; with L-NAME 3 μg/kg/min (ic), Ap4A 0.5 μg/kg/min, control 90.3): 100.0 ml/100 g/min | Coronary blood flow ([5]; with L-NAME 3 μg/kg/min (ic), Ap4A 1 μg/kg/min, control 90.3): 119.4 ml/100 g/min | Coronary blood flow ([5]; with L-NAME 3 μg/kg/min (ic), Ap4A 2 μg/kg/min, control 90.3): 122.6 ml/100 g/min | Coronary blood flow ([5]; with L-NAME 3 μg/kg/min (ic), Ap4A 4 μg/kg/min, control 90.3): 151.6 ml/100 g/min | Coronary blood flow ([5]; with L-NAME 3 μg/kg/min (ic), Ap4A 8 μg/kg/min, control 90.3): 219.4 ml/100 g/min | Myocardial fractional shortening ([6]; Ap4A 4 μg/kg/min intracoronary 10 minutes, control 24.7, 1/3 control 4.9): 11.5% | Coronary blood flow ([6]; Ap4A 4 μg/kg/min intracoronary 10 minutes, control 90.5, 1/3 control 30.4): 48.2 ml/100 g/min | Coronary perfusion pressure ([6]; Ap4A 4 μg/kg/min intracoronary 10 minutes, control 104, 1/3 control 54): 54 mmHg | Myocardial fractional shortening ([6]; Ap4A administration stopped, 1/3 control 4.9): 4.8% | Coronary blood flow ([6]; Ap4A administration stopped, 1/3 control 30.4): 31.9 ml/100 g/min | Coronary perfusion pressure ([6]; Ap4A administration stopped, 1/3 control 54): 54 mmHg | prevention of decrease in myocardial fractional shortening ([6]; ischemia, Ap4A 4 μg/kg/min): significantly preventing a decrease in myocardial fractional shortening | amelioration effect on myocardial ischemia ([6]; mongrel dogs in a state of excessive ischemia): noticeable amelioration effect on myocardial ischemia | anti-arrhythmia effect [7]: anti-arrhythmia effect | vasodilating effect on rabbit mesenteric arteries [8]: vasodilating effect on rabbit mesenteric arteries | Myocardial oxygen consumption ([9]; Ap4A 0.5 μg/kg/min): 9.9 ml/100 g/min | Myocardial oxygen consumption ([9]; Ap4A 1 μg/kg/min): 9.0 ml/100 g/min | Myocardial oxygen consumption ([9]; Ap4A 2 μg/kg/min): 8.7 ml/100 g/min | Myocardial oxygen consumption ([9]; Ap4A 4 μg/kg/min): 8.7 ml/100 g/min | Myocardial oxygen consumption ([9]; Ap4A 8 μg/kg/min): 9.5 ml/100 g/min | myocardial oxygen consumption (MVO2) change ([9]; Ap4A 0.5 to 8 μg/kg/min): neither largely increased nor decreased | deliberated hypotensive effect [10]: deliberated hypotensive effect

Source: patent US5571524A, “Agent for curing ischemic myocardial disease” (Unitika Ltd., priority 1994, dated 1996)
